In brackets after ≈: the same amount, converted by molar mass.
Assays:
Aspergillus fumigatus = assay: EUCAST MICs of AmB, ISA, AmB-loaded LNPs and AmB-ISA-loaded LNPs; type: cell-based; conditions: 48 h at 37° C.
Experimental: Briefly, a mass (80-120 mg) of an oil phase consisting of triglycerides (Labrafac®, or tributyrin in different mass ratios, i.e. 100% Labrafac® to 100% tributyrin) was supplemented with AmB (0,025 to 0.2 mg) and ISA (0.25 to 5 mg) and then mixed with 80 to 120 mg of PEG15HS (Solutol HS15®) and 500 to 800 μl of water to form an oil-in-water emulsion. This emulsion was then heated to 85° C., to obtain a water-in-oil emulsion, and then cooled to 40° C. Three such temperature cycles were performed and the system was then fast cooled to 4° C. The formulated nanoparticles were then characterized by size distribution and mean zeta potential measurements. Examples of formulations of LNPs loaded with AmB and AmB-ISA are detailed in Table 5:
Two reference strains (ATCC 16424 and ATCC 204305) and a clinical azole-resistant strain (AfR2) of Aspergillus fumigatus were used.
MICs of AmB in solution, ISA in solution, AmB-loaded LNPs, and AmB-ISA-loaded LNPs were evaluated according to the European Committee on Antimicrobial Susceptibility Testing (EUCAST) guidelines. Briefly, MICs were determined by adding 100 μL of two-fold dilutions of AmB in solution, ISA in solution, AmB-LNPs or AmB-ISA-LNPs (0.008 to 4 mg/L) in 96-well plates. One hundred microliters of a spore suspension at a concentration of 105 spores/mL were added to the wells, and the plates were incubated for 24 h (Mucorales) or 48 h (A. fumigatus) at 37° C. […] Three experiments were performed for each strain.

[1] = tested on: Twelve clinical isolates of Mucorales; assay: Checkerboard AmB MIC with surfactant in solution, statements over all isolates; type: cell-based
Experimental: Twelve clinical isolates of Mucorales identified by ARNr sequencing were used: Rhizopus arrhizus (5), Rhizopus microsporus (1), Lichtheimia corymbifera (3), Lichtheimia ramosa (1), Mucor circinelloides (1), Rhizomucor pusillus (1). Isolates were subcultured from frozen stocks (−80° C.) on 75 cm^3 flasks containing 15 mL of Sabouraud dextrose agar (Sigma-Aldrich, St. Quentin Fallavier, France) during 3 days at 37° C. Spores were collected by flooding the flask with 10 ml of sterile water. The suspensions were filtered on nylon filter (Millipore, Carrigtwohill, Ireland) with pore size of 11 μm to remove hyphal elements. The concentration of the spore suspensions was then adjusted in sterile water to obtain inocula of 2×10^5 spores/mL. […]
AmB minimum inhibitory concentrations (MIC) of each strain of Mucorales was measured in RPMI the presence of different concentrations of surfactant as described by the EUCAST broth microdilution antifungal susceptibility test methodology with modification for the checkerboard procedure. […]
In equation 1, MIC0 refers to the AmB MIC measured without surfactants and MIC∞ is the lowest AmB MIC measured in the presence of surfactant. The maximal ratio in AmB MIC decrease defined as maximal efficacy (Emax) was calculated as the ratio of MIC0/MIC∞. […] These parameters were evaluated using WinNonlin software (version 6.2, Certara, NJ, USA) as described by Chauzy et al.

L. corymbifera = assay: Checkerboard MICs of AmB, ISA and PEG15HS in solution; type: cell-based, Lichtheimia corymbifera; conditions: RPMI, 24 h at 37° C.
Experimental: (§1) AmB minimum inhibitory concentrations (MIC) of each strain of Mucorales was measured in RPMI in the presence of different concentrations of ISA or PEG15HS as described by the EUCAST broth microdilution antifungal susceptibility test methodology with modification for the checkerboard procedure. Checkerboards were performed by adding 100 μL of two-fold dilutions of AmB (0.008 to 4 mg/L) and ISA (0.008 to 4 mg/L) or PEG15HS (0.04 to 2752 mg/L) in 96 well plates. One hundred microliters of a spore suspension at a concentration of 105 spores/mL were added to the wells, and the plates were incubated for 24 h at 37° C. […] Three experiments were performed for each strain.
(§2) AmB MIC of each strain of Mucorales was measured in RPMI in the presence of different concentrations of ISA and a constant concentration of PEG15HS (100 times the concentration of AmB) as described by the EUCAST broth microdilution antifungal susceptibility test methodology with modification for the checkerboard procedure. Checkerboards were performed by adding 100 μL of two-fold dilutions of AmB (0.008 to 4 mg/L)+PEG15HS (0.8 to 400 mg/L) and ISA (0.008 to 4 mg/L) in 96 well plates. One hundred microliters of a spore suspension at a concentration of 105 spores/mL were added to the wells, and the plates were incubated for 24 h at 37° C. […] Three experiments were performed for each strain. […]

Lichtheimia ramosa [2] = assay: MIC of AmB in solution with blank lipid nanoparticles (BLNPs), EUCAST broth microdilution; type: cell-based; conditions: AmB in solution in RPMI, without PEG15HS LNPs
Experimental: MICs for each fungi were measured in the presence of different concentrations of AmB (solubilized in the LNP suspensions or loaded in the LNP) as described by the EUCAST broth microdilution antifungal susceptibility test methodology (EUCAST DEFINITIVE DOCUMENT E.Def 9.3.2 Apr. 2020. EUCAST antifungal MIC method for mould).
A clinical isolate of Lichtheimia ramosa was used. Isolate were subcultured from frozen stocks (−80° C.) on 75 cm^3 flasks containing 15 ml of Sabouraud dextrose agar (Sigma-Aldrich, St. Quentin Fallavier, France) during 3 days at 37° C. Spores were collected by flooding the flask with 10 mL of sterile water. The suspensions were filtered on nylon filter (Millipore, Carrigtwohill, Ireland) with pore size of 11 μm to remove hyphal elements. The concentration of the spore suspensions was then adjusted in sterile water to obtain inocula of 2×10^5 spores/mL.
The MIC of the formulations for Lichtheimia ramosa was assayed.

Rhizopus arrhizus 1 = assay: Checkerboard MICs of AmB, ISA and PEG15HS in solution; type: cell-based; conditions: RPMI, 24 h at 37° C.
Experimental: as §1, §2

Rhizomucor pusillus = assay: Checkerboard AmB MIC with surfactant in solution, inhibitory Emax model; type: cell-based; conditions: R. pusillus
Experimental: (§3) Twelve clinical isolates of Mucorales identified by ARNr sequencing were used: Rhizopus arrhizus (5), Rhizopus microsporus (1), Lichtheimia corymbifera (3), Lichtheimia ramosa (1), Mucor circinelloides (1), Rhizomucor pusillus (1). Isolates were subcultured from frozen stocks (−80° C.) on 75 cm^3 flasks containing 15 mL of Sabouraud dextrose agar (Sigma-Aldrich, St. Quentin Fallavier, France) during 3 days at 37° C. Spores were collected by flooding the flask with 10 ml of sterile water. The suspensions were filtered on nylon filter (Millipore, Carrigtwohill, Ireland) with pore size of 11 μm to remove hyphal elements. The concentration of the spore suspensions was then adjusted in sterile water to obtain inocula of 2×10^5 spores/mL.
(§4) AmB powder (Sigma-Aldrich) was dissolved in dimethyl sulfoxide to get a stock solution at 8192 mg/L stored at −80° C. for six months. On the day of use, AmB and freshly made surfactant solutions (in RPMI or PBS) were diluted in the same medium (RPMI or PBS) to obtain desired concentrations. Surfactants used (polyethylene glycol (15)-hydroxystearate (also named Solutol® HS15 or Kolliphor® HS 15, or Macrogol 15 Hydroxystearate); polyoxyethylene (10) stearyl ether (Brij® S10); polyoxyethylene (20) stearyl ether (Brij® S20); polyoxyethylene (20) oleyl ether (Brij® 020); and polyoxyethylene (10) cetyl ether (Brij® C10)), which have their chemical structure presented in FIG. 7, were purchased from Sigma-Aldrich.
as §1, with “RPMI” for “RPMI in”, “surfactant” for “ISA or PEG15HS”, “surfactant solutions” for “ISA (0.008 to 4 mg/L) or PEG15HS”
(§5) An inhibitory Emax model (Equation 1) developed by Chauzy et al. (Chauzy, A.; Buyck, J.; de Jonge, B. L. M.; Marchand, S.; Grégoire, N.; Couet, W. Pharmacodynamic Modelling of β-Lactam/β-Lactamase Inhibitor Checkerboard Data: Illustration with Aztreonam-Avibactam. Clin. Microbiol. Infect. 2019, 25, 515.e1-515.e4, doi: 10.1016/j.cmi.2018.11.025) to evaluate the enhancing effect of non-antibiotics molecules on the efficacy of antibiotic against bacteria was used here to describe the average decrease in AmB MIC values (MICsurf) against various Mucorales strains in relation to surfactant concentrations (Csurf).
(§6) In equation 1, MIC0 refers to the AmB MIC measured without surfactants and MIC∞ is the lowest AmB MIC measured in the presence of surfactant. The maximal ratio in AmB MIC decrease defined as maximal efficacy (Emax) was calculated as the ratio of MIC0/MIC∞. EC50 is the concentration of surfactant producing 50% of the Emax and characterizes the potency of the surfactants. These parameters were evaluated using WinNonlin software (version 6.2, Certara, NJ, USA) as described by Chauzy et al.

Rhizopus microsporus = assay: as above; type: cell-based; conditions: R. microsporus
Experimental: as §3, §4
as §1, with “RPMI” for “RPMI in”, “surfactant” for “ISA or PEG15HS”, “surfactant solutions” for “ISA (0.008 to 4 mg/L) or PEG15HS”
as §5, §6

Lichtheimia ramosa [3] = assay: as above; type: cell-based; conditions: L. ramosa
Experimental: as §3, §4
as §1, with “RPMI” for “RPMI in”, “surfactant” for “ISA or PEG15HS”, “surfactant solutions” for “ISA (0.008 to 4 mg/L) or PEG15HS”
as §5, §6

Rhizopus arrhizus = assay: as above; type: cell-based
Experimental: as §3, §4
as §1, with “RPMI” for “RPMI in”, “surfactant” for “ISA or PEG15HS”, “surfactant solutions” for “ISA (0.008 to 4 mg/L) or PEG15HS”
as §5, §6

Mucor circinelloides = assay: as above; type: cell-based; conditions: M. circinelloides
Experimental: as §3, §4
as §1, with “RPMI” for “RPMI in”, “surfactant” for “ISA or PEG15HS”, “surfactant solutions” for “ISA (0.008 to 4 mg/L) or PEG15HS”
as §5, §6

Lichtheimia corymbifera = assay: as above; type: cell-based
Experimental: as §3, §4
as §1, with “RPMI” for “RPMI in”, “surfactant” for “ISA or PEG15HS”, “surfactant solutions” for “ISA (0.008 to 4 mg/L) or PEG15HS”
as §5, §6

SMILES: C[C@@H]1[C@H](O)[C@@H](C)/C=C/C=C/C=C/C=C/C=C/C=C/C=C/[C@H](O[C@@H]2O[C@H](C)[C@@H](O)[C@H](N)[C@@H]2O)C[C@@H]2O[C@](O)(C[C@@H](O)C[C@@H](O)[C@H](O)CC[C@@H](O)C[C@@H](O)CC(=O)O[C@H]1C)C[C@H](O)[C@H]2C(=O)O [AmB, amphotericin B]
- MIC (AmB) (Aspergillus fumigatus; A. fumigatus R2 (clinical azole-resistant strain AfR2)): 2 µg/mL (≈ 2.16 µM)
- MIC (AmB) (Aspergillus fumigatus; Aspergillus fumigatus 16 (ATCC 16424)): 2 µg/mL (≈ 2.16 µM)
- MIC (agent alone) [1]: less than 1 mg/L
- MIC of AmB (L. corymbifera): 1 µg/mL
- MIC of AmB (Lichtheimia ramosa [2]): 0.5 µg/mL
- MIC of AmB (Rhizopus arrhizus 1): 1 µg/mL
- MIC0 (MIC of AmB in the absence of surfactant) (Rhizomucor pusillus): 0.25 µg/mL
- MIC0 (MIC of AmB in the absence of surfactant) (Rhizopus microsporus): 0.68 µg/mL
- MIC0 (MIC of AmB in the absence of surfactant) (Lichtheimia ramosa [3]): 0.51 µg/mL
- MIC0 (MIC of AmB in the absence of surfactant) (Rhizopus arrhizus; R. arrhizus 1): 0.28 µg/mL
- MIC0 (MIC of AmB in the absence of surfactant) (Rhizopus arrhizus; R. arrhizus 2): 0.44 µg/mL
- MIC0 (MIC of AmB in the absence of surfactant) (Rhizopus arrhizus; R. arrhizus 3): 0.59 µg/mL
- MIC0 (MIC of AmB in the absence of surfactant) (Rhizopus arrhizus; R. arrhizus 4): 0.61 µg/mL
- MIC0 (MIC of AmB in the absence of surfactant) (Rhizopus arrhizus; R. arrhizus 5): 0.35 µg/mL
- MIC0 (MIC of AmB in the absence of surfactant) (Mucor circinelloides): 0.19 µg/mL
- MIC0 (MIC of AmB in the absence of surfactant) (Lichtheimia corymbifera; L. corymbifera 1): 0.36 µg/mL
- MIC0 (MIC of AmB in the absence of surfactant) (Lichtheimia corymbifera; L. corymbifera 2): 0.06 µg/mL
- MIC0 (MIC of AmB in the absence of surfactant) (Lichtheimia corymbifera; L. corymbifera 3): 0.25 µg/mL

Source: US20250221930A1, “A COMPOSITION COMPRISING LIPID NANOPARTICLES AND AN ANTIFUNGAL POLYENE” (INSTITUT NATIONAL DE LA SANTÉ ET DE LA RECHERCHE MÉDICALE, priority 2022, published 2025)
